US20050197331A1, “Novel anti-inflammatory and analgesic heterocyclic amidines that inhibit nitrogen oxide (NO) production” (ROTTAPHARM SPA, priority 2004, published 2005)
pIC50: −log10 of the molar value. “And” between values parts separate entries of the source, which are not always exact repeats. Identical values can stand only once. Counter-ions that a name gives are not always drawn. Like-named read-outs stand apart in the source and are kept apart here.

Columns and labels:
[1] = test system: IL-6; assay: Inhibition of IL-6 expression (mRNA) in SW 1353 cells stimulated with IL-1β, Real Time PCR; format: cell-based; details: Homo sapiens, SW1353; SW 1353 cells stimulated for 6 hours with IL-1β
Source text: In practice, the RNA extracted from the cells was back-transcribed to c-DNA by means of a thermocycler (BioRad—“iCycler”) and subsequently amplified via the Real Time PCR technique using a probe and a primer specific for IL-6, from the company Applied Biosystem, and the thermocycler 7000 Sequence Detection System (Applied Biosystem).
The capacity […] may be considered as large, since the increase in the expression of this cytokine is associated with the physiopathology of various human diseases, for instance Crohn's disease, as described previously.

[2] = test system: rat paw injected with Zymosan; assay: Zymosan-induced paw oedema in rats; format: in vivo; details: for anti-inflammatory and anti-hyperalgesic action (in words): Zymosan, administered orally, L-NAME up to maximum dose 50 mg/kg; for Anti-inflammatory activity (oedema) ED30 / Mean (Oedema + Analgesia) ED30: os, 0-6 hours; for Anti-inflammatory activity (oedema) ED30: dose reducing volume increase by 30%; for Mean (Oedema + Analgesia) ED30: mean of oedema and analgesia ED30
Procedure: (§1) This is a phlogogenic agent, consisting of a protein-glycoside complex, extracted from the cell walls of raw yeast, which is capable of inducing rapid degranulation of neutrophils, an increase in the production of TNF-α, interleukin-1 (IL-1), IL-6 and stimulation of NO generation by monocytes and macrophages (ZymosaN:Merck Index XIII ed. No. 10250, p. 1818).
(§2) The experiments consisted of sub-plantar intradermal injection into the animal of 4 mg of Zymosan suspended in 100 μl of sterile physiological solution, while the test compounds were administered orally 30 minutes before injection of the phlogogenic agent.
(§3) Measurement of the inflammation of the injected paw and of the consequent hyperalgesic effects was performed 2, 4 and 6 hours after the administration of Zymosan. The oedema was evaluated as the increase in volume of the injected paw within the period 0-6 hours, relative to the initial value of the volume of the paw, i.e. before the injection of Zymosan (basal value).
The measurements of the variation of the volume of the paw were recorded using a hydroplethysmometer (Mod. 7150, Basile, Italy), which consists of two plastic cuvettes containing a surfactant liquid, the larger one being used for immersion of the paw, connected to the smaller one which contains a transducer capable of recording small displacements of volume of the liquid used for the measurement. The paw is immersed in the cuvettes up to the tibiotarsal joint. The volume of liquid displaced by the paw indicates the magnitude of the inflammation.
For each test compound, at least three doses were used (generally 10, 20 and 40 mg/kg) with at least five animals per group×dose, so as to be able to calculate an ED30, i.e. the dose in mg/kg capable of reducing by 30% the Zymosan-induced volume increase, relative to the group of control animals, i.e. animals injected only with the phlogogenic agent and treated orally with distilled water.

[3] = test system: formation of NO measured as NO2^− (nitrite); assay: Inhibition of NO (nitrite) formation in rabbit articular chondrocytes stimulated with IL-1β; format: cell-based
Procedure: (§4) a) The inhibitory activity on the formation of NO measured as NO2^− (nitrite) and PGE2 was studied in vitro on culture media of rabbit articular chondrocytes stimulated with the cytokine IL-1β (1 ng/ml) for 48 hours. For the preparation of the chondrocytes, the method described by Berenbaum et al. [FEBS Letters 340, 51-55 (1994)] was followed. Briefly, fragments of cartilage removed aseptically from the articular heads of rabbit shoulder, hip and knee were finely ground and digested at 37° C. in hyaluronidase, trypsin and collagenase solutions, giving, after filtration through sterile gauze and centrifugation at 600×g and suitable dilution with 10% DMEM-FCS 10%, a concentration per well of about 1×10^5 cells. The cells were maintained under these conditions until confluent (about 15 days), the medium being replaced every 3 days. At this point, the test products dissolved in the medium were added to each sample and, after 20 minutes, 350 μl of IL-1β were added, to give a final concentration of 1 ng/ml. The stimulation lasted 48 hours at 37° C. (incubation in air/7% CO2). A nitrite assay was subsequently performed on the cell supernatant, as described by Green et al. [Anal. Biochem. 126, 131-138 (1982)], and of PGE2 by RIA assay. The results obtained are shown in Table 3, in which is given, for a number of the compounds that are the subject of the invention and that are already illustrated in Table 1, the IC50, i.e. the concentration (micromolar) of antagonist capable of inhibiting the formation of nitrites and PGE2 by 50% relative to the control group, i.e. relative to the cells stimulated with IL-1β but without addition of antagonists.

[4] = test system: PGE2; assay: Inhibition of PGE2 formation in rabbit articular chondrocytes stimulated with IL-1β (RIA); format: cell-based; details: for pIC50: Oryctolagus cuniculus, Chondrocyte
Procedure: as §4

[5] = test system: rat paw injected with Zymosan; assay: Zymosan-induced mechanical hyperalgesia in rats (Randall-Selitto); format: in vivo; details: os, 0-6 hours, dose increasing pain threshold by 30%
Procedure: as §1, §2, §3
The hyperalgesia induced by the intradermal administration of Zymosan was evaluated on these animals and at the same times described previously for the evaluation of the oedema, using the Randall-Selitto method [Arch. Int. Pharmacodyn. 111, 409 (1957)].
When the animal makes a noise following the pain stimulus, the operator blocks the punch and records the force, expressed in grams, which was applied to the paw (the cut-off value is 500 grams). The difference in the meal chanical pain threshold between the basal value (generally about 230-250 grams) and that recorded at the indicated times after injection of the phlogogenic agent, generally 130-140 g for the control animals 6 hours after injection of the phlogogenic agent, is defined as mechanical hyperalgesia. In this case also, an ED30 was calculated, i.e. the dose in mg/kg capable of increasing the pain threshold by 30% (meal chanical hyperalgesia) in the animals treated with the test compounds relative to the group of control animals.

[6] = test system: rabbit articular chondrocytes; assay: Cellular toxicity on rabbit articular chondrocytes; format: cell-based; details: noted beside IN in Table 3
Procedure: as §4

[7] = Oryctolagus cuniculus, Chondrocyte, rabbit articular chondrocytes, IL-1β 1 ng/ml, 48 hours, nitrite in supernatant, read-out: Inhibition % IC50 NO
[8] = rabbit articular chondrocytes, IL-1β 1 ng/ml, 48 hours, RIA, read-out: Inhibition % IC50 PGE2
[9] = rabbit articular chondrocytes stimulated with IL-1β, read-out: IC50, formation of PGE2
[10] = Oryctolagus cuniculus, Chondrocyte, rabbit articular chondrocytes stimulated with IL-1β, read-out: IC50, production of NO
[11] = rabbit articular chondrocytes stimulated with IL-1β

| SMILES | melting point | pIC50 [1] | pIC50 [3, 7] | pIC50 [4, 8] | pIC50 [4, 9] | pIC50 [3, 10] | anti-inflammatory and anti-hyperalgesic action (in words) [2] | Anti-inflammatory activity (oedema) ED30 [2] | Mean (Oedema + Analgesia) ED30 [2] | Analgesic activity (mechanical anti-hyperalgesia) ED30 [5] | Tox = cellular toxicity (concentration) [6] [µM] | inhibiting the production of NO (in words) [3, 11] | anti-inflammatory and anti-hyperalgesic action (in words) ([2]; 50 mg/kg) | activity on NO production, fold less powerful than the best compounds of the invention [3, 11] | pIC50 ([3]; rabbit articular chondrocytes stimulated with IL-1β, read-out: IC50, production of NO) | Inhibition % IC50 PGE2 ([4]; rabbit articular chondrocytes, IL-1β 1 ng/ml, 48 hours, RIA) |
| --- | --- | --- | --- | --- | --- | --- | --- | --- | --- | --- | --- | --- | --- | --- | --- | --- |
| CC(=N)Nc1ccc2oc(-c3ccc(Cl)cc3)nc2c1 [Compound 30, N-[2-(4-chlorophenyl)benzoxazol-5-yl]acetamidine] | 183.6 to 185.1 °C |  |  | 6.52 | 6.10 to 6.52 |  |  |  |  |  | 30 |  |  |  |  |  |
| CC(=N)Nc1ccc2nc(-c3ccccc3)ncc2c1 [Compound 27, N-(2-phenylquinazolin-6-yl)acetamidine dihydrochloride] |  | 5.22 to 5.82 | 4.17 | 5.05 |  |  | powerful anti-inflammatory and anti-hyperalgesic action | 24.6 mg/kg | 18.8 mg/kg | 13.0 mg/kg |  |  |  |  |  |  |
| CC(=N)Nc1ccc2[nH]c(-c3ccccc3)cc2c1 [Compound 5, N-(2-phenyl-1H-indol-5-yl)acetamidine] | 217.7 to 220 °C and 218 to 220 °C | 5.22 to 5.82 | 5.47 | 5.92 |  | 5.10 to 5.52 | powerful anti-inflammatory and anti-hyperalgesic action | 39.4 mg/kg | 29.4 mg/kg | 19.3 mg/kg |  |  |  |  |  |  |
| CC(=N)Nc1ccc2oc(-c3ccccc3)cc2c1 [Compound 28, N-(2-phenylbenzofuran-5-yl)acetamidine] | 204.8 to 205.9 °C | 5.22 to 5.82 | 5.11 | 6.30 | 6.10 to 6.52 | 5.10 to 5.52 | powerful anti-inflammatory and anti-hyperalgesic action | 20.8 mg/kg | 22.6 mg/kg | 24.4 mg/kg |  |  |  |  |  |  |
| CC(=N)Nc1ccc2oc(-c3ccc(Cl)c(Cl)c3)nc2c1 [Compound 34, N-[2-(3,4-dichlorophenyl)benzoxazol-5-yl]acetamidine] | 182 to 184 °C |  | 5.37 | 6.40 | 6.10 to 6.52 | 5.10 to 5.52 |  |  |  |  |  |  |  |  |  |  |
| Cc1ccc(-c2cc(C(F)(F)F)nn2-c2ccc(S(N)(=O)=O)cc2)cc1 [Celecoxib, reference compound] |  |  |  | 7.70 |  |  |  | 79.4 mg/kg | 74.3 mg/kg | 69.2 mg/kg |  | entirely inactive |  |  |  |  |
| COC(=O)[C@@H](N)CCCNC(=N)N[N+](=O)[O-] [L-NAME, N^G-nitro-L-arginine methyl ester, reference compound] |  |  |  |  |  |  |  | IN (the compound L-NAME was entirely inactive up to the maximum dose administered (50 mg/kg)) | IN (the compound L-NAME was entirely inactive up to the maximum dose administered (50 mg/kg)) | IN (the compound L-NAME was entirely inactive up to the maximum dose administered (50 mg/kg)) |  |  | inactive | about 10 fold | 4.15 | IN (IN = <25% inhibitory activity at 30 × 10^−6M) |
| CC(=N)Nc1ccc2oc(-c3ccc(C(F)(F)F)cc3)nc2c1 [Compound 32, N-[2-(4-trifluromethylphenyl)benzoxazol-5-yl]acetamidine] | 179.2 to 181 °C |  | 5.09 | 6.22 |  |  |  |  |  |  |  |  |  |  |  |  |

More lines, main results first:

| melting point | pIC50 [1] | pIC50 [3, 7] | pIC50 [4, 8] | pIC50 [4, 9] | pIC50 [3, 10] | SMILES | anti-inflammatory and anti-hyperalgesic action (in words) [2] | Anti-inflammatory activity (oedema) ED30 [2] | Mean (Oedema + Analgesia) ED30 [2] | Analgesic activity (mechanical anti-hyperalgesia) ED30 [5] | Tox = cellular toxicity (concentration) [6] [µM] | inhibiting the production of NO (in words) [3, 11] | anti-inflammatory and anti-hyperalgesic action (in words) ([2]; 50 mg/kg) | activity on NO production, fold less powerful than the best compounds of the invention [3, 11] | pIC50 ([3]; rabbit articular chondrocytes stimulated with IL-1β, read-out: IC50, production of NO) | Inhibition % IC50 PGE2 ([4]; rabbit articular chondrocytes, IL-1β 1 ng/ml, 48 hours, RIA) |
| --- | --- | --- | --- | --- | --- | --- | --- | --- | --- | --- | --- | --- | --- | --- | --- | --- |
| 143 to 144.4 °C | 5.22 to 5.82 | 4.32 | 5.64 |  |  | CC(=N)Nc1ccc2nc(-c3ccccc3)ccc2c1 [Compound 8, N-(2-phenylquinol-6-yl)acetamidine] | powerful anti-inflammatory and anti-hyperalgesic action | 19.8 mg/kg | 15.8 mg/kg | 11.8 mg/kg |  |  |  |  |  |  |
| 177 to 178 °C | 5.22 to 5.82 | 4.74 | 5.38 |  |  | CC(=N)Nc1ccc2sc(-c3ccccc3)nc2c1 [Compound 9, N-(2-phenylbenzothiazol-5-yl)acetamidine] | powerful anti-inflammatory and anti-hyperalgesic action | 33.9 mg/kg | 32.6 mg/kg | 31.3 mg/kg |  |  |  |  |  |  |
| 161 to 162.1 °C |  | 5.19 | 5.62 |  | 5.10 to 5.52 | CC(=N)Nc1ccc2nc(-c3ccccc3)sc2c1 [Compound 1, N-(2-phenylbenzothiazol-6-yl)acetamidine] | powerful anti-inflammatory and anti-hyperalgesic action | 12.6 mg/kg | 9.7 mg/kg | 6.7 mg/kg |  |  |  |  |  |  |
| 188.4 to 189.8 °C | 5.22 to 5.82 | 5.21 | 5.92 |  | 5.10 to 5.52 | CC(=N)Nc1ccc2sc(-c3ccccc3C)nc2c1 [Compound 18, N-[2-(2-methylphenyl)benzothiazol-5-yl]acetamidine] |  |  |  |  |  |  |  |  |  |  |
| 171.2 to 173.4 °C | 5.22 to 5.82 | 4.54 | 5.49 |  |  | CC(=N)Nc1ccc2oc(-c3ccccc3)nc2c1 [Compound 29, N-(2-phenylbenzoxazol-5-yl)acetamidine] |  |  |  |  |  |  |  |  |  |  |
| 157.9 to 159.2 °C |  | 4.33 | 4.86 |  |  | CC(=N)Nc1ccc2oc(-c3ccccc3F)nc2c1 [Compound 33, N-[2-(2-fluorophenyl)benzoxazol-5-yl]acetamidine] |  |  |  |  |  |  |  |  |  |  |
| 154 to 158 °C |  | 3.70 | 5.00 |  |  | CC(=N)Nc1ccc2[nH]c(-c3ccccc3C)nc2c1 [Compound 39, N-[2-(2-methylphenyl)benzimidazol-5-yl]acetamidine] |  |  |  |  |  |  |  |  |  |  |
